Assay results taken from ChEMBL document CHEMBL1124945, “1-(substituted-benzyl)imidazole-2(3H)-thione inhibitors of dopamine beta-hydroxylase” (J Med Chem, 1990).

Target: T1, Dopamine beta-hydroxylase (Rattus norvegicus, UniProt Q05754)
T1 sequence (Q05754 whole entry): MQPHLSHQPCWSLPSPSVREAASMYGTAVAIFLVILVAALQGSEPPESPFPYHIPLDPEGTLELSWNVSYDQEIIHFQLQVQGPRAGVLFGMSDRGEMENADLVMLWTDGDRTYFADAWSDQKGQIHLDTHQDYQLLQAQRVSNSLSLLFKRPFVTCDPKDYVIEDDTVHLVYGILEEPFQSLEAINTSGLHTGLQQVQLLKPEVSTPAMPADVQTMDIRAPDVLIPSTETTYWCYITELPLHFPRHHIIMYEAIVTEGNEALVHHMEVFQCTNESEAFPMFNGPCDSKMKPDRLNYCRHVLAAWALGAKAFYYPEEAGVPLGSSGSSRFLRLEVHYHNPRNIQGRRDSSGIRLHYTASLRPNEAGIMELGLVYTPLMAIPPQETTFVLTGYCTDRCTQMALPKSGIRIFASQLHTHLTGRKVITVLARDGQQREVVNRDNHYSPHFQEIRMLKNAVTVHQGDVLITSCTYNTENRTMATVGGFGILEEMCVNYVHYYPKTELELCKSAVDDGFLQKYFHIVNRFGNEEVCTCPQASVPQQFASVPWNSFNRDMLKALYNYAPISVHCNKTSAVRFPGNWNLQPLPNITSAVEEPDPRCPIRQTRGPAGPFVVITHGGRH
Assay: Inhibition of dopamine beta-hydroxylase (DbetaH) […]

| IC50 [µM] | Compound |
| --- | --- |
| 33.1 | S=c1[nH]ccn1Cc1ccccc1 |
| 120 | Oc1ccc(Cn2cc[nH]c2=S)cc1C(F)(F)F |
| 708 | S=c1[nH]ccn1Cc1c(Cl)cccc1Cl |
| 52.5 | O=[N+]([O-])c1ccc(Cn2cc[nH]c2=S)cc1 |
| 2.4 | S=c1[nH]ccn1Cc1cc(Cl)cc(Cl)c1 |
| 74.1 | COc1ccccc1Cn1cc[nH]c1=S |
| 52.5 | S=c1[nH]ccn1Cc1cccc(Cl)c1Cl |
| 74.1 | COc1ccc(Cn2cc[nH]c2=S)cc1F |
| 36.3 | COc1c(F)cc(Cn2cc[nH]c2=S)cc1F |
| 102 | S=c1[nH]ccn1Cc1c(Cl)cc(Cl)cc1Cl |
| 355 | S=c1[nH]ccn1Cc1ccccc1Cl |
| 46.8 | COc1c(Cl)cc(Cn2cc[nH]c2=S)cc1Cl |
| 95.5 | S=c1[nH]ccn1Cc1ccc(Cl)cc1 |
| 339 | COc1ccc(Cn2cc[nH]c2=S)cc1OC |
| 17 | S=c1[nH]ccn1Cc1ccc(Cl)cc1Cl |
| 0.0741 | Oc1c(F)cc(Cn2cc[nH]c2=S)cc1F |
| 83.2 | COc1ccc(Cn2cc[nH]c2=S)cc1Br |
| 97.7 | S=c1[nH]ccn1Cc1cc(Cl)ccc1Cl |
| 148 | Oc1cccc(Cn2cc[nH]c2=S)c1 |
| 30.9 | O=[N+]([O-])c1cc(Cn2cc[nH]c2=S)ccc1O |
| 61.7 | Oc1c(F)c(F)c(Cn2cc[nH]c2=S)c(F)c1F |
| 69.2 | COc1ccc(Cn2cc[nH]c2=S)cc1C |
| 155 | COc1cc(Cl)c(Cn2cc[nH]c2=S)c(Cl)c1 |

| IC50 [µM] | Compound |
| --- | --- |
| 115 | S=c1[nH]ccn1Cc1ccc(Br)cc1 |
| 49 | Cc1cc(Cn2cc[nH]c2=S)ccc1O |
| 355 | COc1ccc(Cn2cc[nH]c2=S)cc1[N+](=O)[O-] |
| 5.62 | Fc1cccc(Cn2cc[nH]c2=S)c1 |
| 0.676 | Oc1c(Cl)cc(Cn2cc[nH]c2=S)cc1Cl |
| 575 | Oc1ccccc1Cn1cc[nH]c1=S |
| 1.51 | Oc1ccc(Cn2cc[nH]c2=S)cc1F |
| 200 | FC(F)(F)c1ccc(Cn2cc[nH]c2=S)cc1 |
| 339 | Cc1ccccc1Cn1cc[nH]c1=S |
| 148 | Cc1ccc(Cn2cc[nH]c2=S)cc1 |
| 501 | COc1cccc(OC)c1Cn1cc[nH]c1=S |
| 28.2 | S=c1[nH]ccn1Cc1ccc(Cl)c(Cl)c1 |
| 12 | Oc1ccc(Cn2cc[nH]c2=S)cc1Br |
| 12 | S=c1[nH]ccn1Cc1cccc(Cl)c1 |
| 75.9 | Oc1cc(Cl)c(Cn2cc[nH]c2=S)c(Cl)c1 |
| 174 | COc1ccc(Cn2cc[nH]c2=S)cc1C(F)(F)F |
| 46.8 | Fc1ccc(Cn2cc[nH]c2=S)cc1 |
| 2 | Oc1ccc(Cn2cc[nH]c2=S)cc1Cl |
| 2.19 | Oc1ccc(Cn2cc[nH]c2=S)cc1O |
| 1000 | Cc1cccc(C)c1Cn1cc[nH]c1=S |
| 158 | COc1cccc(Cn2cc[nH]c2=S)c1 |
| 204 | COc1ccc(Cn2cc[nH]c2=S)cc1 |
